Measurements published in PubChem BioAssay (NCI).
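Where inhibition never reached the appropriate level, the endpoint shown equals the highest concentration tested. Otherwise, values were interpolated linearly from a five-concentration, 48-hour dose response in 96-well plates. The concentration for full growth arrest is given as TGI.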

What was measured:
Assay in all cases: NCI-60 cell line screen, 48 h
COLO 205 colon = system: COLO 205 colon
ACHN renal = system: ACHN renal
SN12C renal = system: SN12C renal
OVCAR-3 ovarian = system: OVCAR-3 ovarian
UO-31 renal = system: UO-31 renal
UACC-257 melanoma = system: UACC-257 melanoma
LOX IMVI melanoma = system: LOX IMVI melanoma
SF-295 CNS = system: SF-295 CNS
NCI-H460 lung = system: NCI-H460 lung
SNB-19 CNS = system: SNB-19 CNS
A549 NSCLC = system: A549 NSCLC
RXF-631 renal = system: RXF-631 renal
SK-MEL-28 melanoma = system: SK-MEL-28 melanoma
HT29 colon = system: HT29 colon
M14 melanoma = system: M14 melanoma
SF-268 CNS = system: SF-268 CNS
SK-MEL-5 melanoma = system: SK-MEL-5 melanoma
UACC-62 melanoma = system: UACC-62 melanoma
IGROV1 ovarian = system: IGROV1 ovarian
KM12 colon = system: KM12 colon
SF-539 CNS = system: SF-539 CNS
HOP-62 NSCLC = system: HOP-62 NSCLC
OVCAR-5 ovarian = system: OVCAR-5 ovarian
M19-MEL melanoma = system: M19-MEL melanoma
NCI-H226 lung = system: NCI-H226 lung
RPMI-8226 leukemia = system: RPMI-8226 leukemia
OVCAR-4 ovarian = system: OVCAR-4 ovarian
HCT-116 colon = system: HCT-116 colon
TK-10 renal = system: TK-10 renal
NCI-H522 lung = system: NCI-H522 lung
MALME-3M melanoma = system: MALME-3M melanoma
SK-MEL-2 melanoma = system: SK-MEL-2 melanoma
LXFL 529 NSCLC = system: LXFL 529 NSCLC
HOP-18 NSCLC = system: HOP-18 NSCLC
DLD-1 colon = system: DLD-1 colon
HCC-2998 colon = system: HCC-2998 colon
EKVX NSCLC = system: EKVX NSCLC
XF 498 CNS = system: XF 498 CNS
RXF 393 renal = system: RXF 393 renal
NCI-H23 lung = system: NCI-H23 lung
HOP-92 NSCLC = system: HOP-92 NSCLC
DMS 114 small cell lung = system: DMS 114 small cell lung
OVCAR-8 ovarian = system: OVCAR-8 ovarian
U251 CNS = system: U251 CNS
HCT-15 colon = system: HCT-15 colon
SNB-75 CNS = system: SNB-75 CNS
HL-60(TB) leukemia = system: HL-60(TB) leukemia
SW-620 colon = system: SW-620 colon
CCRF-CEM leukemia = system: CCRF-CEM leukemia
786-0 renal = system: 786-0 renal
A498 renal = system: A498 renal
SK-OV-3 ovarian = system: SK-OV-3 ovarian
KM20L2 colon = system: KM20L2 colon
DMS 273 small cell lung = system: DMS 273 small cell lung
CAKI-1 renal = system: CAKI-1 renal
SNB-78 CNS = system: SNB-78 CNS
SR leukemia = system: SR leukemia
K-562 leukemia = system: K-562 leukemia
MOLT-4 leukemia = system: MOLT-4 leukemia

Measured: TGI

CCCCCCCCCCCCCP(=O)(O)NCC(N)=O
90.4 µM: UO-31 renal
67.3 µM: HL-60(TB) leukemia
86.1 µM: HOP-18 NSCLC
86.2 µM: NCI-H522 lung
not listed: DMS 273 small cell lung | CAKI-1 renal | SNB-78 CNS | SR leukemia | K-562 leukemia | MOLT-4 leukemia
> 100 µM: all other assays above

O=C(Cc1ccccc1)NN1C(=O)C(Cl)C1c1ccccc1O (stereo unspecified)
82 µM: SNB-19 CNS
86.1 µM: MALME-3M melanoma
71.5 µM: UACC-257 melanoma
46.5 µM: DMS 114 small cell lung
30.9 µM: M14 melanoma
61.2 µM: HOP-18 NSCLC
36.8 µM: UO-31 renal
52.5 µM: NCI-H226 lung
26.7 µM: EKVX NSCLC
89.6 µM: M19-MEL melanoma
38.2 µM: NCI-H460 lung
18.8 µM: HL-60(TB) leukemia
not listed: RXF-631 renal | SK-MEL-5 melanoma | KM12 colon | SF-539 CNS | HOP-92 NSCLC | A498 renal
> 100 µM: all other assays above
